Experiments:
[1] = Pharmacokinetics of single and multiple oral doses of ceftibuten in healthy adult subjects; format: in vivo, human; conditions: for dose proportionality of exposure (Cmax, AUC0-12, AUC0-∞): doses of 400, 600 and 800 mg of ceftibuten
Protocol: (§1) A double-blind, randomized, placebo-controlled, sequential ascending single- and multiple dose study of ceftibuten in healthy adult subjects was conducted. There were four cohorts of 10 subjects each who received both single and multiple oral doses (8 active and 2 placebo).
Dose proportionality was examined graphically and using an ANOVA test of the dose-normalized Cmax, AUC0-12 and AUC0-∞ values. […] The AUC0-12 exposure of cis-ceftibuten is shown in FIG. 1 and the AUC0-12 exposure of trans-ceftibuten is shown in FIG. 2, showing that increases were dose proportional.

[2] = test system: 99 strains of Enterobacterales; experiment: Resistance development study: mutant prevention concentration (MPC) of Compound 1 with ceftibuten; format: cell-based
Protocol: 99 strains of Enterobacterales were used in resistance development studies using ceftibuten at 1 or 2 μg/ml in combination with various concentrations of the following β-lactamase inhibitor:
Compound 1 is described in PCT Publication No. WO 2018/005662, which is incorporated herein by reference in its entirety. Concentrations of Compound 1 included 1, 2, 4 and 8 μg/ml. The goal of the study was to identify the concentration of Compound 1 (MPC, mutant prevention concentration) that will prevent appearance of mutants at two different concentrations of ceftibuten.

[3] = Safety of single and multiple ascending oral doses of ceftibuten in healthy adult subjects; format: in vivo
Protocol: as §1
The event of nausea occurred in one subject in the SAD period following single administration of ceftibuten and the event of […] occurred in one subject in the MAD period following administration of the ceftibuten. […] The nausea was considered to be moderate in severity and diarrhea considered to be mild in severity with both events deemed by the investigator to be related to the study drug. The nausea persisted from Day 1 dose (SAD) until after Day 4 morning dose (MAD), despite treatment with concomitant medications. […] The incidence of treatment-related TEAEs was similar in the 400 mg (1 [12.5%] of 8 subjects) and 600 mg (2 [25.0%] of 8 subjects) ceftibuten and Pooled Placebo groups (3 [37.5%] of 8 subjects). […] The highest incidence was reported in the highest ceftibuten dose (800 mg). The most common gastrointestinal TEAEs in the 800 mg group during the MAD period were nausea in 4 out of 16 subjects (25.0%), diarrhea in 4 of 16 (25.0%), abdominal pain in 3 of 16 (18.8%), upper abdominal pain in 3 of 16 (18.8%) and abdominal discomfort in 2 of 16 subjects (12.5%). Most Gastrointestinal Disorder TEAEs were transient and mild in severity with no intervention required. […] All events were asymptomatic, resolved spontaneously after the completion of study treatment, and were not associated with elevations of alkaline phosphatase or bilirubin. • There was no trend in abnormalities that were NCS in hematology, coagulation, or urinalysis parameters.

[4] = multiple oral doses 400 mg ceftibuten BID
[5] = multiple oral doses 600 mg ceftibuten BID
[6] = multiple oral doses 800 mg ceftibuten BID
[7] = single oral dose 400 mg ceftibuten
[8] = single oral dose 600 mg ceftibuten
[9] = single oral dose 800 mg ceftibuten

| SMILES | terminal half-life ([1]; 400-800 mg ceftibuten oral) | time of peak plasma concentration post-dose ([1]; 400-800 mg ceftibuten oral) | urinary recovery, % of the administered dose ([1]; after multiple doses) | urinary recovery, % of the administered dose ([1]; after single doses) | dose proportionality of exposure (Cmax, AUC0-12, AUC0-∞) [1] | mean maximum plasma concentration [1, 4] | mean maximum plasma concentration [1, 5] | mean maximum plasma concentration [1, 6] | mean maximum plasma concentration [1, 7] | mean maximum plasma concentration [1, 8] | mean maximum plasma concentration [1, 9] | further results |
| --- | --- | --- | --- | --- | --- | --- | --- | --- | --- | --- | --- | --- |
| Nc1nc(/C(=C/CC(=O)O)C(=O)N[C@@H]2C(=O)N3C(C(=O)O)=CCS[C@H]23)cs1 (relative stereo) [cis-ceftibuten] | 2.3 to 3.1 h | 2.3 to 3.0 h | 75.8-100% | 59.5-86.9% | increased proportionally | 21.7 µg/mL | 28.1 µg/mL | 38.8 µg/mL | 17.6 µg/mL | 24.1 µg/mL | 28.1 µg/mL | renal clearance ([1]; 400-800 mg ceftibuten oral): 2.9 to 4.2 L/h; total body clearance ([1]; 400-800 mg ceftibuten oral): 3.9 to 5.0 L/h |
| Nc1nc(/C(=C\CC(=O)O)C(=O)N[C@@H]2C(=O)N3C(C(=O)O)=CCS[C@H]23)cs1 (relative stereo) [trans-ceftibuten] | 3.0 to 3.6 h | 3.3 to 4.8 h | 14.1-16.8% | 9.3-12.5% | increased proportionally | 1.4 µg/mL | 1.9 µg/mL | 2.8 µg/mL | 1.1 µg/mL | 1.5 µg/mL | 2.2 µg/mL |  |
| O=C([O-])c1c(F)ccc2c1O[B-](O)(O)[C@@H]1C[C@H]21.[Na+].[Na+] [Compound 1] |  |  |  |  |  |  |  |  |  |  |  | % Strains with Compound 1 MPC <= 4 ug/ml ([2]; ceftibuten at 1 μg/ml, strains with Ceftibuten/Compound 1 MIC 0.125 (20 strains)): 90.0%; % Strains with Compound 1 MPC <= 4 ug/ml ([2]; ceftibuten at 1 μg/ml, strains with Ceftibuten/Compound 1 MIC 0.25 (16 strains)): 56.3%; % Strains with Compound 1 MPC <= 4 ug/ml ([2]; ceftibuten at 1 μg/ml, strains with Ceftibuten/Compound 1 MIC 0.5 (14 strains)): 21.4%; % Strains with Compound 1 MPC <= 4 ug/ml ([2]; ceftibuten at 1 μg/ml, strains with Ceftibuten/Compound 1 MIC 1 (12 strains)): 8.3%; % Strains with Compound 1 MPC <= 4 ug/ml ([2]; ceftibuten at 1 μg/ml, strains with Ceftibuten/Compound 1 MIC 2 (7 strains)): 28.6%; % Strains with Compound 1 MPC <= 4 ug/ml ([2]; ceftibuten at 1 μg/ml, strains with Ceftibuten/Compound 1 MIC <=0.06 (30 strains)): 96.7%; % Strains with Compound 1 MPC <= 4 ug/ml ([2]; ceftibuten at 2 μg/ml, strains with Ceftibuten/Compound 1 MIC 0.125 (20 strains)): 95.0%; % Strains with Compound 1 MPC <= 4 ug/ml ([2]; ceftibuten at 2 μg/ml, strains with Ceftibuten/Compound 1 MIC 0.25 (16 strains)): 87.5%; % Strains with Compound 1 MPC <= 4 ug/ml ([2]; ceftibuten at 2 μg/ml, strains with Ceftibuten/Compound 1 MIC 0.5 (14 strains)): 57.1%; % Strains with Compound 1 MPC <= 4 ug/ml ([2]; ceftibuten at 2 μg/ml, strains with Ceftibuten/Compound 1 MIC 1 (12 strains)): 16.7%; % Strains with Compound 1 MPC <= 4 ug/ml ([2]; ceftibuten at 2 μg/ml, strains with Ceftibuten/Compound 1 MIC 2 (7 strains)): 28.6%; % Strains with Compound 1 MPC <= 4 ug/ml ([2]; ceftibuten at 2 μg/ml, strains with Ceftibuten/Compound 1 MIC <=0.06 (30 strains)): 100.0% |
| Nc1nc(/C(=C/CC(=O)O)C(=O)N[C@@H]2C(=O)N3C(C(=O)O)=CCS[C@H]23)cs1 [ceftibuten] |  |  |  |  |  |  |  |  |  |  |  | frequency of reported TEAEs versus dose ([3]; MAD period, 400-800 mg BID): did not increase with increasing ceftibuten dose; serious, severe, life-threatening TEAEs or TEAEs resulting in death ([3]; SAD and MAD periods): no serious, severe, life-threatening TEAEs, or TEAEs resulting in death; frequency of reported TEAEs versus dose ([3]; SAD period, 400-800 mg): did not increase with increasing ceftibuten dose; ALT elevations ([3]; human, in vivo): incidence and severity of which did not increase with increasing ceftibuten dose; abnormalities in ECG parameters or physical examination ([3]; human, in vivo): no CS abnormalities; number of TEAEs reported ([3]; human, in vivo): 44; severity of TEAEs ([3]; human, in vivo): All TEAEs were mild, regardless of causality, with the exception of 2 TEAEs; vital sign parameters (blood pressure, pulse rate, body temperature, respiratory rate) ([3]; human, in vivo): no trends in changes from Baseline |

Source: patent US20240197750A1, “CEFTIBUTEN DOSING REGIMENS” (QPEX Biopharma, Inc., priority 2021, published 2024)
